Data set [1] deals with T1, c-Met (cytoplasmic domain) (Homo sapiens, UniProt P08581).
T1 construct: Reactions were initiated with 30 ng/mL c-Met (cytoplasmic domain, Invitrogen Corporation #PV3143); purchased Invitrogen Corporation PV3143
Put plainly: c-Met Kinase Assay (ELISA/TRF, PLC-γ substrate). In kind it is biochemical. The conditions noted are these: 3 μM ATP (Km level); read-out: c-Met Kinase Inhibition (IC50). Put shortly:
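Readout is TRF of europium anti-phosphotyrosine (PT66) bound to GST–PLC-γ substrate coated at 10 μg/mL, after a 15 min, 37 °C reaction started with 30 ng/mL c-Met cytoplasmic domain. Percent inhibition plotted against log compound concentration and fitted (variable slope) for IC50.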
On the technique in general: An ELISA detects its analyte on a solid surface through an enzyme-linked reagent.

The target in data set [2] is baculovirus-expressed ALK (Homo sapiens, UniProt Q9UM73). Kind of data set: ALK Kinase Assay (ELISA/TRF, PLC-γ substrate). Further: 1 µM ATP (Km level). In kind it is biochemical. The conditions noted are these: read-out: ALK Kinase Inhibition (IC50). Put shortly: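 ALK at 30 ng/ml phosphorylated plate-bound PLC-γ–GST fusion (coated from 10 μg/mL) during 15 minutes at 37° C. Product was detected with Eu-N1 PT66 anti-phosphotyrosine antibody and measured by time-resolved fluorescence.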
Sequence of baculovirus-expressed ALK (Q9UM73 19-1620): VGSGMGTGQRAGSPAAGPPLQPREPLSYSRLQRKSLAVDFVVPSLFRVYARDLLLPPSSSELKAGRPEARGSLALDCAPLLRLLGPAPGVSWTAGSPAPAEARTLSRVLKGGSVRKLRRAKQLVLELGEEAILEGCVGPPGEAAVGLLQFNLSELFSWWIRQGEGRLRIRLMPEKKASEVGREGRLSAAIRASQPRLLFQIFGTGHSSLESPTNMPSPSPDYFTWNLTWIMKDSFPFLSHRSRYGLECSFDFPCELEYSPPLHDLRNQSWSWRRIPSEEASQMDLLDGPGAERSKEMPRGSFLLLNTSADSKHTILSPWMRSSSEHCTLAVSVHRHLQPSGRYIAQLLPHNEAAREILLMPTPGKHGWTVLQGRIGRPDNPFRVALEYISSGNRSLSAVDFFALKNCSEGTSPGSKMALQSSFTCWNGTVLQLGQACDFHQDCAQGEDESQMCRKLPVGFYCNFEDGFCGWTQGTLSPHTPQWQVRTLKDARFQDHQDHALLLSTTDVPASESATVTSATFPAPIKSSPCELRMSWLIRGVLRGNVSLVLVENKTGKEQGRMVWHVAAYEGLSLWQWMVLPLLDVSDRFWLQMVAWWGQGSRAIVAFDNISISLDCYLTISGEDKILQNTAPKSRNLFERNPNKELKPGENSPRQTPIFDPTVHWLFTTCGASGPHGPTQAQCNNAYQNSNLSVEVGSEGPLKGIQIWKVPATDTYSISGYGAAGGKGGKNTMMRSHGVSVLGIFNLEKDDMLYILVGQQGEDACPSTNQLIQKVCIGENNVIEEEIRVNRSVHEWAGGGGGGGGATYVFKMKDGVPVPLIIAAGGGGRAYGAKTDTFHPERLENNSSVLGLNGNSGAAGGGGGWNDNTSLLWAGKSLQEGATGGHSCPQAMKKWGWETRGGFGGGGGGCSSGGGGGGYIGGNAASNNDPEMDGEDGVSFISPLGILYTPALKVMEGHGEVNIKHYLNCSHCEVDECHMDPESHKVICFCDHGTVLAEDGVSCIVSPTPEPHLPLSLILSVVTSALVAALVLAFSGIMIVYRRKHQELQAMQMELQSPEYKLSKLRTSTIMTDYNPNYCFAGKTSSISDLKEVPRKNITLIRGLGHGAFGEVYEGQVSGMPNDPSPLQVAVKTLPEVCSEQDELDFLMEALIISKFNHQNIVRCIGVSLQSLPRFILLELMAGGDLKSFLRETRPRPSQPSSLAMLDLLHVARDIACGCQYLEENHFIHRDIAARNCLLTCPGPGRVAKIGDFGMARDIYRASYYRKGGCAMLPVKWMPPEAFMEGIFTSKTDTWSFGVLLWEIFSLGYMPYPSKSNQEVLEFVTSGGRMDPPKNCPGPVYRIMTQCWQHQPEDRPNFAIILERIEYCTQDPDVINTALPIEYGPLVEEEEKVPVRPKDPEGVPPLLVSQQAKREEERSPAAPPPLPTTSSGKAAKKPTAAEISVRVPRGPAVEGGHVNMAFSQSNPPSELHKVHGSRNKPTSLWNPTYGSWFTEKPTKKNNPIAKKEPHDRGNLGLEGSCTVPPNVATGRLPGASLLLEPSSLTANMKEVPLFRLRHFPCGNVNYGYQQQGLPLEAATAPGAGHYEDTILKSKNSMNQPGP

Where a name gives a salt, the structure may show the parent alone.

T1 sequence (P08581 956-1390 limits assumed): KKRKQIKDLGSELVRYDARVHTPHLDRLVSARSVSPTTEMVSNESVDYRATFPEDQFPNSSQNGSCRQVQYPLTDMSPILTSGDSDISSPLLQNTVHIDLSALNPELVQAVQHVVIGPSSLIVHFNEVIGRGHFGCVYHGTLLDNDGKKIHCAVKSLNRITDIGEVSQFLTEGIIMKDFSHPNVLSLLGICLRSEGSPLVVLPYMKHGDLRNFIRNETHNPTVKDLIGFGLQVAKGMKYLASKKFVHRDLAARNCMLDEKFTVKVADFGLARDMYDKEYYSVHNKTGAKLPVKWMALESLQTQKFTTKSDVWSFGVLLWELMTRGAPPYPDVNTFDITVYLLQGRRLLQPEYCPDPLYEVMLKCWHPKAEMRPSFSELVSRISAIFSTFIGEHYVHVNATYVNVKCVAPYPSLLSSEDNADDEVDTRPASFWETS

As usually defined, the melting point is the temperature, or range, at which the solid turns liquid. In turn, `O=C(NCCN1CCCC1)c1ccc(-c2cnc3c(c2)N(Cc2ccccc2)C(=O)CN3)cc1` (as salt: trifluoroacetic acid salt) [Example 12, 4-(1-Benzyl-2-oxo-1,2,3,4-tetrahydropyrido[2,3-b]pyrazin-7-yl)-N-(2-pyrrolidin-1-yl-ethyl)benzamide, trifluoroacetic acid salt] displayed a melting point of 107 °C.
Turning to `CN(C)CCCCCCNC(=O)c1ccc(-c2cnc3c(c2)N(Cc2c(Cl)cccc2Cl)C(=O)CN3)cc1` (as salt: trifluoroacetic acid salt) [Example 143, 4-[1-(2,6-Dichlorobenzyl)-2-oxo-1,2,3,4-tetrahydropyrido[2,3-b]pyrazin-7-yl]-N-(6-dimethylaminohexyl)benzamide, trifluoroacetic acid salt], the melting point is 150 °C.
Still for that read-out and setting: the figure for `CN(C)CCCCNC(=O)c1ccc(-c2cnc3c(c2)N(Cc2c(Cl)cccc2Cl)C(=O)CN3)cc1` (as salt: trifluoroacetic acid salt) [Example 144, 4-[1-(2,6-Dichlorobenzyl)-2-oxo-1,2,3,4-tetrahydropyrido[2,3-b]pyrazin-7-yl]-N-(4-dimethylaminobutyl)benzamide, trifluoroacetic acid salt] is 147 °C.
Usually IC50 stands for the point on the concentration scale where inhibition reaches its midpoint. With `CCOC(=O)CNc1ncc(I)cc1[N+](=O)[O-]` [Example 1, (5-Iodo-3-nitro-pyridin-2-ylamino)-acetic acid ethyl ester], the melting point is 200 °C (dec.). In data set [1], the IC50 lay in the range of 10 to 100 µM. Moreover, the IC50 in data set [2] lay in the range of 10 to 100 µM.
In the case of `O=C1CNc2ncc(I)cc2N1` [Example 2, 7-Iodo-3,4-dihydro-1H-pyrido[2,3-b]pyrazin-2-one], the melting point was found to be 81 °C. Moreover, in data set [1], the IC50 was above 100 µM. Further, the 50% inhibitory concentration (IC50) in data set [2] was above 100 µM.
Turning to `O=C1CNc2ncc(I)cc2N1Cc1c(F)ccc(F)c1Cl` [Example 3, 1-(2-Chloro-3,6-difluorobenzyl)-7-iodo-3,4-dihydro-1H-pyrido[2,3-b]pyrazin-2-one], the melting point turned out to be 237 °C. In data set [1], the IC50 is above 100 µM. In data set [2], the IC50 lay within 10 to 100 µM.
In the same order, the values of `CCOC(=O)c1ccc(-c2cnc3c(c2)N(Cc2c(F)ccc(F)c2Cl)C(=O)CN3)cc1` [Example 5, 4-[1-(2-Chloro-3,6-difluorobenzyl)-2-oxo-1,2,3,4-tetrahydropyrido[2,3-b]pyrazin-7-yl]benzoic acid ethyl ester] are 180 to 182 °C, above 100 µM and 1 to 10 µM.
The compound `O=C1CNc2ncc(I)cc2N1Cc1ccccc1` [Example 8, 1-Benzyl-7-iodo-3,4-dihydro-1H-pyrido[2,3-b]pyrazin-2-one] showed a melting point of 225 °C. Also, the IC50 in data set [1] was above 100 µM. In addition, the IC50 in data set [2] was 10 to 100 µM.
The like results for `CCOC(=O)c1ccc(-c2cnc3c(c2)N(Cc2ccccc2)C(=O)CN3)cc1` [Example 9, 4-(1-Benzyl-2-oxo-1,2,3,4-tetrahydropyrido[2,3-b]pyrazin-7-yl)benzoic acid ethyl ester] were, in that order, 178 °C, above 100 µM and 10 to 100 µM.
`O=C(O)c1ccc(-c2cnc3c(c2)N(Cc2ccccc2)C(=O)CN3)cc1` [Example 10, 4-(1-Benzyl-2-oxo-1,2,3,4-tetrahydropyrido[2,3-b]pyrazin-7-yl)benzoic acid] displayed a melting point above 200 °C. In data set [1], the IC50 is above 100 µM. For the same compound, in data set [2], the IC50 is 10 to 100 µM.
`O=C(c1ccc(-c2cnc3c(c2)N(Cc2ccccc2OC(F)(F)F)CCN3)cc1)N1CCC(N2CCCC2)CC1` [Example 305, (4-Pyrrolidin-1-yl-piperidin-1-yl)-(4-{1-[2-(trifluoromethoxy)benzyl]-1,2,3,4-tetrahydropyrido[2,3-b]pyrazin-7-yl}phenyl)methanone]: the IC50 in data set [1] is 1 to 10 µM; in data set [2] it was below 0.1 µM.
Take `O=C1CN(Cc2c(F)ccc(F)c2Cl)c2cc(Br)cnc2N1` [Example 436, 7-Bromo-1-(2-chloro-3,6-difluorobenzyl)-1,4-dihydro-2H-pyrido[2,3-b]pyrazin-3-one]: the melting point is 214 to 216 °C (dec.).

(Values after patent publication US7601716B2, “Pyridopyrazines and derivatives thereof as ALK and c-Met inhibitors” (Cephalon, Inc., priority 2006, dated 2009).)
